Data published in PMC3758303 (PLoS ONE, 2013).

Columns and labels:
[1] = system: genome-length HCV-RNA (O strain of genotype 1b) replication in Li23-derived ORL11 cells; design: method as in PMID 21320556; conditions: 10 µM, ORL11 assay; cited from earlier work
[2] = system: genome-length HCV-RNA (O strain of genotype 1b) replication in HuH-7-derived OR6 cells; design: method as in PMID 21320556; conditions: 10 µM, OR6 assay; cited from earlier work
[3] = system: genome-length HCV-RNA (O strain of genotype 1b) replication in Li23-derived ORL8 cells; design: method as in PMID 21320556; conditions: 10 µM, ORL8 assay; cited from earlier work
[4] = system: HCV-RNA replication in ORL8 cells; assay: Effect of VE on anti-HCV activity, ORL8 RL assay; type: cell-based, hepatitis C virus; conditions: 72 hrs
Experimental: After treatment, an RL assay of harvested ORL8 cell samples was performed. (B, D, and F) The ratio of RL activity in the presence of VE to the RL activity in the absence of VE. The above ratio was calculated from the data of (A, C, and E). […] (G) Western blot analysis was performed as described in Fig. 1B.
(§1) The ORL8 cells were treated with N-89 or IFN-α, and then RL assays were performed at 2 to 72 hrs after the treatment. The relative value (%) calculated at each time point, when the luciferase activity of non-treated cells at 24 hrs was assigned as 100%, is shown. Data are expressed as the means±standard deviation of triplicate assays. […] To evaluate this possibility, we examined the effect of VE on N-89 at the EC90 level in the ORL8 assay.

HCV-RNA replication = system: HCV-RNA replication; design: method as in PMID 21620801, PMID 16875675; conditions: cited from earlier work
[5] = system: HCV-RNA replication in ORL8 cells; assay: Comparative time course RL assay in ORL8 cells; type: cell-based, hepatitis C virus; conditions: 1 IU/ml
Experimental: We next performed a time course assay (2 to 72 hrs after treatment) in the case of ORL8 cells treated with N-89 (0.1 µM or 1 µM) or IFN-α (1 IU/ml; corresponding to approximately EC80). ORL8 cells treated with IFN-α (1 IU/ml) and N-89 (1 µM) had almost the same anti-HCV kinetics over the first […] after treatment (upper panel of Fig. 4); however, within the first 12 hrs after treatment N-89-treated ORL8 cells had more rapid anti-HCV kinetics than did the IFN-α-treated cells (lower panel of Fig. 4).
as §1, with “Figure 4 The anti-HCV action of N-89 was faster than that of IFN-α. The ORL8” for “The ORL8”, “ORL8 assay. […] Similar results were obtained by using N-251 (Fig. 5C and D). […] However, an antimalarial drug, artemisinin, was hardly influenced by co-treatment with VE (Fig. 5E). The value (1.9) of artemisinin was almost the same as that (3.5 or 2.5) of IFN-α or the control, respectively (Fig. 5F).” for “ORL8 assay.”

[6] = system: genome-length HCV-RNA (O strain of genotype 1b) replication in Li23-derived ORL8 cells; assay: ORL8 RL assay; type: cell-based, hepatitis C virus; conditions: ORL8 cells
Experimental: RSc and D7 cells were derived from the cell lines HuH-7 and Li23, respectively, were cultured as described previously, [29]. HuH-7-derived OR6 [13], AH1R [30], and 1B-4R [Ikeda et al., submitted] cells harboring genome-length HCV-RNA and HuH-7-derived polyclonal sOR [31], and RSc-JRN/35B [Ikeda et al., submitted] cells harboring an HCV subgenomic replicon were cultured with medium in the presence of G418 (0.3 mg/ml; Geneticin, Invitrogen, Carlsbad, CA) as described previously. Li23-derived ORL8 [20], ORL11 [20], 1B-4RL [Ikeda et al., submitted], and KAH5RL [Ikeda et al., submitted] cells harboring genome-length HCV-RNA were maintained with medium in the presence of G418 (0.3 mg/ml) as described previously. Li23-derived polyclonal sORL8 and sORL11 cells harboring an HCV replicon, which were established by the transfection of ORN/3-5B/QR,KE,SR RNA into the cured OL8 and OL11 cells, respectively, were also cultured with medium in the presence of G418 (0.3 mg/ml) as described previously. […] Therefore, when HCV-RNA is excluded from the cells or when its level is decreased, the cells are killed in the presence of G418.
RL assay was performed as described previously, [24]. Briefly, the cells were plated onto 24-well plates (2×10^4 cells per well) in triplicate and then treated with each reagent at several concentrations for 72 hrs. After treatment, the cells were subjected to luciferase assay using the RL assay system (Promega, Madison, WI). The experiments were performed at least in triplicate. From the assay results, the 50% effective concentration (EC50) of each reagent was determined.
The SI value of each reagent was determined by dividing the CC50 value by the EC50 value.

[7] = reagent at expected EC90, Fig. 5F (control 2.5)

| Molecule | inhibition of HCV-RNA replication [1] | inhibition of HCV-RNA replication [2] | inhibition of HCV-RNA replication [3] | VE 10μM(+) / VE 10μM(-) ratio of RL activity [4, 7] | anti-HCV activity (HCV-RNA replication) | VE 10μM(+) / VE 10μM(-) ratio of RL activity ([4]; reagent at expected EC90, Fig. 5B (control 3.0)) | VE 10μM(+) / VE 10μM(-) ratio of RL activity ([4]; reagent at expected EC90, Fig. 5D (control 2.3)) | time after treatment at which a decrease of RL activity began to be seen [5] | EC80 [6] |
| --- | --- | --- | --- | --- | --- | --- | --- | --- | --- |
| NC(=O)c1ncn([C@@H]2O[C@H](CO)[C@@H](O)[C@H]2O)n1 [RBV, ribavirin] | efficiently inhibited HCV-RNA replication | not in the OR6 assay | efficiently inhibited HCV-RNA replication |  |  |  |  |  |  |
| C[C@@H]1CC[C@H]2[C@@H](C)C(=O)O[C@@H]3O[C@@]4(C)CC[C@@H]1[C@]32OO4 [Artemisinin, reference compound] |  |  |  | 1.9 | weak anti-HCV activity |  |  |  |  |
| IFN-α |  |  |  | 3.5 |  | 3.2 | 4.3 | 12 h | ~1 IU/ml |
